The test system of experiment [1] is defense-related genes in tomato plants. The experiment can be described thus: Induction of defense gene expression of tomato plants (RT-qPCR). The class given is in vivo, tomato cv. Rio Grande. The settings on record: tomato leaves sprayed, 24 h; peptides and flg15 125 μM, JA 2.5 mM, ASM 300 mg/L; ΔΔCt relative to actin; above 2 = overexpression. Here is the method: Seeds of tomato cv. Rio Grande plants were sown in hydroponic seed plugs (rockwool), germinated and grown under controlled greenhouse conditions (25 ± 2°C, 16 h light / 15 ± 2°C, 8 h dark, and 60% RH). Two-week old seedlings (two cotyledons) were transplanted into rockwool plugs (7.5×7.5×6.5 cm, Grodan Iberica). The experimental design consisted of three replicates of three plants per treatment. After two weeks, tomato leaves were sprayed with aqueous solutions of BP100, 9 selected derivatives and flg15 at 125 μM, jasmonic acid at 2.5 mM (Sigma-Aldrich, Sant Louis, Missouri, UE), and acybenzolar-S-methyl at 300 mg/L (Syngenta, Basel, Switzerland), until the run-off point. Water-sprayed plants were used as not treated controls. Twenty-four hours after product application leaf samples were collected and processed to extract RNA for RT-qPCR assays. Plant material was ground to a fine powder in liquid nitrogen with the Tissuelyzer II system (Qiagen). Total RNA was extracted from leaves using PureLink Plant RNA Reagent (Invitrogen, Life Technologies) according to the manufacturer’s manual. The RNA was solubilized in RNAse free water and was routinely subjected to DNAse treatment (Ambion® Turbo DNA-free™, Life Technologies) to remove any contaminant DNA. In each step, the RNA was quantified using a Nanodrop N-2000 spectrophotometer, and its integrity verified by denaturing agarose gel electrophoresis. First-strand of complementary DNA (cDNA) was generated from leave RNA using reverse transcriptase (High Capacity cDNA Reverse Transcription Kit, Invitrogen) according to the manufacturer’s manual.
To test gene defense induction in the treated tomato plants, a qPCR assay was performed. Quantitative PCR was carried out in a fluorometric thermal cycler (qPCR Quant Studio 5, Applied Biosystems) by using a Mix SYBR®Green PCR Master Mix (Applied Biosystems). The total reaction volume of this PCR reaction was 20 μL and the reaction mixture was 1 μL of each primer set at the adequate concentration, 10 μL of MixSyber Green, 6 μL of distilled water and 2 μL of cDNA. Melting curve analysis was performed after amplification to verify amplification specificity. A constitutive gene (actin gene) was used as reference control, and the following genes implicated in plant defense response were analyzed: Pathogenesis-related protein-1 (PR1), Harpin (Harp), Polyphenol oxidase (PPO), Subtilisin-like protease (Sub1), Blue copper binding-protein (BCB), Osmotin (Osm2), Acidic β-1,3 endoglucanase (GluA), Lypoxigenase (LOX), Protein inhibitor II (PinII), Dehydrin (Tas14) and Ethylene response transcription factor (ERT3). […] For each gene system, the concentration of the primer pair was optimized. The primer concentration was 100 nM for all the genes except for the GluA, Harp, PR1 and actin genes which optimized concentration was 300 nM. A calibration curve was prepared by cloning the corresponding DNA in the pSpark cloning vector (Canvax, Córdoba, Spain) according to the manufacturer instructions, which was then used to transform E. coli DH5α by standard procedures. The number of plasmid copies were quantified after purification from E. coli (QIAGEN Iberia, S. L., Madrid, Spain), and appropriate dilutions were prepared to obtain the standard curve. […] Relative quantification of gene expression was done using the ΔΔCt method. Each biological repetition treatment was analyzed in duplicate. The mean of the Ct values obtained were used to estimate the fold change value of the endogenous reference gene (actin) and the target plant defense genes.
Background: Real-time PCR tracks product formation cycle by cycle.

Experiment [2] relates to Erwinia amylovora PMV6076. The experiment can be described thus: MIC, growth inhibition in microtiter plates (TSB). The settings on record: Ea, 25°C, 48 h, OD 600 nm, lowest concentration with no growth, given as interval of tested concentrations, three replicates, experiment repeated twice. The class given is cell-based. The text has this: (§1) The following plant pathogenic bacterial strains were used: Erwinia amylovora PMV6076 (Institut National de la Recherche Agronomique, Angers, France), Pseudomonas syringae pv. syringae EPS94 (Institut de Tecnologia Agroalimentària, Universitat de Girona, Spain), Xanthomonas axonopodis pv. vesicatoria 2133–2, Pseudomonas syringae pv. actinidiae Psa3700.1.1, Xanthomonas fragariae Xf349-9A (Instituto Valenciano de Investigaciones Agrarias, Valencia, Spain), and Xanthomonas arboricola pv. pruni CFBP5563 (Collection Française de Bactéries associées aux Plantes, Angers, France). All bacteria except for X. fragariae were stored in Luria Bertani (LB) broth supplemented with glycerol (20%) and maintained at -80°C. For X. fragariae, Medium B [46] was used instead of LB. E. amylovora, X. arboricola pv. pruni, P. syringae pv. syringae and P. syringae pv. actinidiae were scrapped from the agar media after growing for 24 h at 25°C, and X. axonopodis pv. vesicatoria and X. fragariae after growing for 48 h at 25°C. The cell material was suspended in sterile water to obtain a suspension of 10^8 CFU mL^-1.
(§2) Lyophilized peptides were solubilized in sterile Milli-Q water to a final concentration of 1 mM and filter sterilized through a 0.22-μm pore filter. […] For antibacterial activity 20 μL of each dilution were mixed in a microtiter plate well with 20 μL of the corresponding suspension of the bacterial indicator, 160 μL of Trypticase Soy Broth (TSB) (BioMèrieux, France) to a total volume of 200 μL. For antifungal activity 20 μL of each stock solution were mixed in a microtiter plate well with 80 μL of the corresponding suspension of the fungal pathogen and 100 μL of double concentrated Potato Dextrose Broth (PDB) to a total volume of 200 μL containing 0.003% w/v of chloramphenicol to prevent bacterial contamination.
(§3) Three replicates for each combination of strain, compound and concentration were used. Microbial growth was determined by optical density measurement at 600 nm (Bioscreen C, Labsystem, Helsinki, Finland). For antibacterial activity microplates were incubated at 25°C with 20 s shaking before hourly absorbance measurement for 48 h. For antifungal activity microplates were incubated at 22°C with 1 min shaking before absorbance measurement that were done every two hours during seven days. The experiment was repeated twice. The MIC was taken as the lowest compound concentration with no growth at the end of the experiment.

The test system of experiment [3] is Pseudomonas syringae pv. actinidiae Psa3700.1.1. The experiment is described as follows: MIC, growth inhibition in microtiter plates (TSB). The class given is cell-based. The settings on record: Psa, 25°C, 48 h, OD 600 nm, lowest concentration with no growth, given as interval of tested concentrations, three replicates, experiment repeated twice.
Excerpt: as §1, §2, §3

Experiment [4] relates to Pseudomonas syringae pv. syringae EPS94. The experiment can be described thus: MIC, growth inhibition in microtiter plates (TSB). The class given is cell-based. The settings on record: Pss, 25°C, 48 h, OD 600 nm, lowest concentration with no growth, given as interval of tested concentrations, three replicates, experiment repeated twice.
Excerpt: as §1, §2, §3

For experiment [5], the system named is Xanthomonas arboricola pv. pruni CFBP5563. The experiment can be described thus: MIC, growth inhibition in microtiter plates (TSB). The format is cell-based. The settings on record: Xap, 25°C, 48 h, OD 600 nm, lowest concentration with no growth, given as interval of tested concentrations, three replicates, experiment repeated twice.
Excerpt: as §1, §2, §3

Experiment [6] deals with Xanthomonas axonopodis pv. vesicatoria 2133–2. The experiment can be described thus: MIC, growth inhibition in microtiter plates (TSB). The class given is cell-based. The settings on record: Xav, 25°C, 48 h, OD 600 nm, lowest concentration with no growth, given as interval of tested concentrations, three replicates, experiment repeated twice.
Excerpt: as §1, §2, §3

Experiment [7] deals with Xanthomonas fragariae Xf349-9A. The experiment can be described thus: MIC, growth inhibition in microtiter plates (TSB). The settings on record: Xf, 25°C, 48 h, OD 600 nm, lowest concentration with no growth, given as interval of tested concentrations, three replicates, experiment repeated twice. The class given is cell-based.
Excerpt: as §1, §2, §3

Experiment [8] has as its system Fusarium oxysporum f. sp. lycopersici FOL 3 race 2. The experiment can be described thus: MIC, antifungal growth inhibition in microtiter plates (PDB). The format is cell-based. The settings on record: Fo, 22°C, seven days, OD 600 nm, lowest concentration with no growth, given as interval of tested concentrations, three replicates, experiment repeated twice. On the procedure: (§4) The following plant pathogenic fungal strains were used: Penicillium expansum EPS26 (Institut de Tecnologia Agroalimentària, Universitat de Girona, Spain) and Fusarium oxysporum f. sp. lycopersici FOL 3 race 2 (ATCC 201829, American Type Culture Collection,Virginia, EEUU). Strains were cultured on potato dextrose agar (PDA) plates (Difco). Conidia from P. expansum and microconidia from F. oxysporum were obtained from 5–7 day-old agar Potato Dextrose (PDA) cultures after growth at 25°C. Inoculum was prepared by scraping spore material from culture surfaces with a cotton swab and resuspending it in distilled water containing 0.5‰ of tween 80. The suspensions were filtered through Miracloth (Merk, Millipore) and the concentration of conidia was determined using a hemacytometer and adjusted to 10^4 conidia mL^-1 for F. oxysporum and to 10^3 conidia mL^-1 for P. expansum.
as §2, §3

The subject of experiment [9] is Penicillium expansum EPS26. The experiment is described as above. The format is cell-based. The settings on record: Pe, 22°C, seven days, OD 600 nm, lowest concentration with no growth, given as interval of tested concentrations, three replicates, experiment repeated twice. Here is the method: as §4, §2, §3

The values that follow come from publication PMC6063448, “Antimicrobial activity of linear lipopeptides derived from BP100 towards plant pathogens” (PLoS ONE, 2018).

For orientation: MIC means the lowest concentration that inhibits growth of the organism.

Each structure is given as a SMILES string. A value given as a limit tells only on which side of the number the result lay.

Consider `CSC(=O)c1cccc2nnsc12` [ASM, acybenzolar-S-methyl, reference compound], for which, in experiment [1], the “BCB gene expression, fold induction” value was 12.1; the “ERT3 gene expression, fold induction” value turned out to be 2.9; the “GluA gene expression, fold induction” value is 5.9; the “Harp gene expression, fold induction” value is 6.3. Also, in [1], the “LOX gene expression, fold induction” value came to 3.3; the “Osm2 gene expression, fold induction” value was found to be 8.7; the “PPO gene expression, fold induction” value is 2.9; the “PR1 gene expression, fold induction” value turned out to be 4.8. Further, in experiment [1], the “PinII gene expression, fold induction” value came out at 0.5; the “Sub1 gene expression, fold induction” value worked out at 11.6; the “Tas14 gene expression, fold induction” value turned out to be 10.7.
Consider `CCCCCC(=O)N[C@@H](CCCCN)C(=O)N[C@@H](CCCCN)C(=O)N[C@@H](CC(C)C)C(=O)N[C@@H](Cc1ccccc1)C(=O)N[C@@H](CCCCN)C(=O)N[C@@H](CCCCN)C(=O)N[C@H](C(=O)N[C@@H](CC(C)C)C(=O)N[C@@H](CCCCN)C(=O)N[C@@H](Cc1ccc(O)cc1)C(=O)N[C@@H](CC(C)C)C(N)=O)[C@@H](C)CC` [BP367, C5H11CO-KKLFKKILKYL-NH2], for which the MIC in experiment [2], in [3], in experiment [4], in [5], in experiment [6] and in experiment [7] was 3.1 to 6.2 µM throughout. Also, the minimal inhibitory concentration (MIC) in experiment [8] fell in the range of 1.6 to 3.1 µM; in experiment [9], 12.5 to 25 µM.
With `CCCCCC(=O)NCCCC[C@H](NC(C)=O)C(=O)N[C@@H](CCCCN)C(=O)N[C@@H](CC(C)C)C(=O)N[C@@H](Cc1ccccc1)C(=O)N[C@@H](CCCCN)C(=O)N[C@@H](CCCCN)C(=O)N[C@H](C(=O)N[C@@H](CC(C)C)C(=O)N[C@@H](CCCCN)C(=O)N[C@@H](Cc1ccc(O)cc1)C(=O)N[C@@H](CC(C)C)C(N)=O)[C@@H](C)CC` [BP368, Ac-K(COC5H11)KLFKKILKYL-NH2], the minimum inhibitory concentration (MIC) is 6.2 to 12.5 µM in experiment [2]; 6.2 to 12.5 µM in [3]; 6.2 to 12.5 µM in experiment [4]; 3.1 to 6.2 µM in experiment [5]; 3.1 to 6.2 µM in [6]; 6.2 to 12.5 µM in experiment [7]. The MIC in experiment [8] fell in the range of 0.8 to 1.6 µM; in experiment [9], 1.6 to 3.1 µM.
In the case of `CCCC(=O)NCCCC[C@H](NC(=O)[C@H](CCCCN)NC(=O)[C@H](CCCCN)NC(=O)[C@H](Cc1ccccc1)NC(=O)[C@H](CC(C)C)NC(=O)[C@H](CCCCN)NC(=O)[C@H](CCCCN)NC(C)=O)C(=O)N[C@@H](CC(C)C)C(=O)N[C@@H](CCCCN)C(=O)N[C@@H](Cc1ccc(O)cc1)C(=O)N[C@@H](CC(C)C)C(N)=O` [BP386, Ac-KKLFKKK(COC3H7)LKYL-NH2], the MIC in experiment [2] was 12.5 to 25 µM; in experiment [3] it was 6.2 to 12.5 µM; in [5], 12.5 to 25 µM; in experiment [6], 12.5 to 25 µM; in experiment [7], 12.5 to 25 µM; in experiment [8], 12.5 to 25 µM. Further, the MIC in [9] was over 25 µM.
For the compound `CC/C=C\C[C@H]1C(=O)CC[C@@H]1CC(=O)O` [JA, jasmonic acid, reference compound], in experiment [1], the “BCB gene expression, fold induction” value is 6.6; the “ERT3 gene expression, fold induction” value was found to be 41.3; the “GluA gene expression, fold induction” value amounted to 0.2; the “Harp gene expression, fold induction” value was determined as 1.9. Further, in experiment [1], the “LOX gene expression, fold induction” value is recorded as 9.7; the “Osm2 gene expression, fold induction” value stood at 48.4; the “PPO gene expression, fold induction” value is over 50; the “PR1 gene expression, fold induction” value is 2.9. In [1], the “PinII gene expression, fold induction” value was over 50; the “Sub1 gene expression, fold induction” value was determined as 3.9; the “Tas14 gene expression, fold induction” value is reported as 0.88.
